Key:
[1] = Permeability across human Caco2 cells; format: ADME, cell-based; conditions: Caco-2, read-out: permeability
[2] = Metabolic stability in human liver microsomes; format: ADME; conditions: read-out: Stability
[3] = target: T1, C-C chemokine receptor type 1 (Homo sapiens, UniProt P32246); experiment: Displacement of [125I]MIP-1alpha from human recombinant CCR1 expressed in HEK293 cell membranes after 1.5 hrs by microbeta counting analysis
T1 sequence (P32246 whole entry): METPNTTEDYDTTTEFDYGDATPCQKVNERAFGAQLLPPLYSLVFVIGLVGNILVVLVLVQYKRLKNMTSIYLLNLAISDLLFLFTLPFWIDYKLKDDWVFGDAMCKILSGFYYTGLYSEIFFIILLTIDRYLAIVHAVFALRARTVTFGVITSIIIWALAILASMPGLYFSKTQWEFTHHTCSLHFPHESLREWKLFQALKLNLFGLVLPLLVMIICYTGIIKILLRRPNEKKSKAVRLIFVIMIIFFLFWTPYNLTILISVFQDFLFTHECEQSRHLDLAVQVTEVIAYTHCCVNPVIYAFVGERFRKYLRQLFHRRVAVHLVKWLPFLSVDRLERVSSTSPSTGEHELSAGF

[4] = target: T2, C-C chemokine receptor type 1 (Rattus norvegicus, UniProt A6I4C9); experiment: Displacement of [125I]MIP-1alpha from rat CCR1
T2 sequence (A6I4C9 whole entry): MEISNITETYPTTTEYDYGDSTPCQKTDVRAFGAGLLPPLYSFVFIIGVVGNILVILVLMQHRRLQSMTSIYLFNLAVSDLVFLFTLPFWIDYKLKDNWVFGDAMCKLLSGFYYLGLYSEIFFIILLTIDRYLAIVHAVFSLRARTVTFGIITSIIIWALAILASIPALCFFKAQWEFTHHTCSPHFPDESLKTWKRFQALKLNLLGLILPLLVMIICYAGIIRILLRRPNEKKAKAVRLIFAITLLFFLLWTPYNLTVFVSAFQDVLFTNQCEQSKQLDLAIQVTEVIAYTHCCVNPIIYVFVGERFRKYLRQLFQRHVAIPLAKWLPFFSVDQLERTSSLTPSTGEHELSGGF

Hepatocyte = experiment: Metabolic stability in human hepatocytes measured per 10^6 cells; format: ADME, cell-based
[5] = target: Voltage-gated inwardly rectifying potassium channel KCNH2 (Homo sapiens, UniProt Q12809); experiment: Inhibition of human ERG expressed in HEK cells after 3 hrs by ion flux electrophysiology
Chain of Voltage-gated inwardly rectifying potassium channel KCNH2 (Q12809 whole entry): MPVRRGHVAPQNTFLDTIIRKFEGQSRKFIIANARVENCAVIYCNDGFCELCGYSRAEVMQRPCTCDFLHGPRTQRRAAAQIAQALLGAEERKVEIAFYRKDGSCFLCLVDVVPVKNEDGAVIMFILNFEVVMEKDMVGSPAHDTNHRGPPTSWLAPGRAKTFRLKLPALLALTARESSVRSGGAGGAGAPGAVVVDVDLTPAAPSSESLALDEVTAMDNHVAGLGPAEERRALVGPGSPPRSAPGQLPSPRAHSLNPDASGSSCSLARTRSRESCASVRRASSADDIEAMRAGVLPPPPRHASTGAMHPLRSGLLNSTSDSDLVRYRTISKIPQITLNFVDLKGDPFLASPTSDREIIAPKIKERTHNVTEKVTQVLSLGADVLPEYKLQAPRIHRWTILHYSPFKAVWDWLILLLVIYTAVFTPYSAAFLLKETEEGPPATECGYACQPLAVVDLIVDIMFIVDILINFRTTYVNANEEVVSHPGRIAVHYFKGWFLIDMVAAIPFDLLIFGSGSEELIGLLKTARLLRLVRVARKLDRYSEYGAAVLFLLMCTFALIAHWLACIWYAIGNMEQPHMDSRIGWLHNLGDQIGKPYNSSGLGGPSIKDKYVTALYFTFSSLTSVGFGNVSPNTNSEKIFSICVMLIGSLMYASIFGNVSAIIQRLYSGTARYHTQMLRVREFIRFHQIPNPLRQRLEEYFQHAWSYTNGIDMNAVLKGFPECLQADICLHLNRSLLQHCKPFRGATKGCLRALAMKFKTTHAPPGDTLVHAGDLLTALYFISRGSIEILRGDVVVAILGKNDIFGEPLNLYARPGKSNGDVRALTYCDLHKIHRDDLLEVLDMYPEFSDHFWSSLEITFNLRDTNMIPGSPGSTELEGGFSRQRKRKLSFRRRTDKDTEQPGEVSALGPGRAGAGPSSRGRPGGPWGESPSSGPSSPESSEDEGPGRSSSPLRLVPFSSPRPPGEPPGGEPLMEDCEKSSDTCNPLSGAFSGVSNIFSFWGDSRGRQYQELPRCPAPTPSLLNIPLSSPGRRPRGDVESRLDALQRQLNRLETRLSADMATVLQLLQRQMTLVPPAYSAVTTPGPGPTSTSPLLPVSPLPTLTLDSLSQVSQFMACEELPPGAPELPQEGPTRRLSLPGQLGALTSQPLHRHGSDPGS

SMILES	Papp [1] [×10⁻⁶ cm/s]	microsomal CLint [2] [µL/min/mg]	IC50 [3] [nM]	IC50 ([4]; read-out: IC50) [nM]	Stability (Hepatocyte)	IC50 [5] [nM]	IC50 [4]
O=C(Nc1ccccc1OC[C@@H](O)CN1CCC2(CC1)Cc1cc(Cl)ccc1O2)N1CCCC1	3.5	> 200	1.4	–	–	–	–
CNC(=O)Nc1ccc(OC)cc1OC[C@@H](O)CN1CCC2(CC1)Cc1cc(Cl)ccc1O2	–	71.2	4.5	447	–	–	–
CNC(=O)Nc1ccc(O)cc1OC[C@@H](O)CN1CCC2(CC1)Cc1cc(Cl)ccc1O2	9	< 10	1.3	1760	5.4 µL/min	4600	–
O=C(Nc1cc(Cl)c(O)cc1OC[C@@H](O)CN1CCC2(CC1)Cc1cc(Cl)ccc1O2)NC1CC1	–	< 11.4	1.8	16	20.7 µL/min	1000	–
COc1ccc(NC(=O)NC2CC2)c(OC[C@@H](O)CN2CCC3(CC2)Cc2cc(Cl)ccc2O3)c1	–	114	1.8	50	–	–	–
O=C(Nc1ccc(O)cc1OC[C@@H](O)CN1CCC2(CC1)Cc1cc(Cl)ccc1O2)NC1CC1	2.67	< 10	0.89	50	6.4 µL/min	–	–
COc1ccc(NC(=O)NC2CC2)c(OC[C@@H](O)CN2CCC3(CC2)Cc2cc(F)ccc2O3)c1	–	133	2.2	90	–	–	–
O=C(Nc1ccc(O)cc1OC[C@@H](O)CN1CCC2(CC1)Cc1cc(F)ccc1O2)NC1CC1	0.93	15.1	0.63	101	5.3 µL/min	3800	–
NC(=O)Nc1ccc(O)cc1OC[C@@H](O)CN1CCC2(CC1)Cc1cc(Cl)ccc1O2	0.5	< 10	3.2	1580	< 3.8 µL/min	> 8900	–
NC(=O)Nc1ccccc1OC[C@@H](O)CN1CCC2(CC1)Cc1cc(Cl)ccc1O2	14	21.5	6.7	2110	< 3 µL/min	400	–
NC(=O)Nc1ccc(F)cc1OC[C@@H](O)CN1CCC2(CC1)Cc1cc(Cl)ccc1O2	16	17	5.6	1620	5.7 µL/min	–	–
O=C1COc2cccc(OC[C@@H](O)CN3CCC4(CC3)Cc3cc(Cl)ccc3O4)c2N1	11	33.7	7.1	1260	7.8 µL/min	600	–
O=C1CCc2cccc(OC[C@@H](O)CN3CCC4(CC3)Cc3cc(Cl)ccc3O4)c2N1	16	65	32	–	Unstable	500	Not Active
O=c1ccc2cccc(OC[C@@H](O)CN3CCC4(CC3)Cc3cc(Cl)ccc3O4)c2[nH]1	–	12.5	37	–	Unstable	–	Not Active
O=c1[nH]c(=O)c2cccc(OC[C@@H](O)CN3CCC4(CC3)Cc3cc(Cl)ccc3O4)c2[nH]1	–	–	560	> 6000	–	–	–
Cc1cc2c(OC[C@@H](O)CN3CCC4(CC3)Cc3cc(Cl)ccc3O4)cccc2o1	–	15	160	–	–	–	Not Active
Nc1nc2c(OC[C@@H](O)CN3CCC4(CC3)Cc3cc(Cl)ccc3O4)cccc2s1	–	–	1300	–	–	–	Not Active
Cc1nc2c(OC[C@@H](O)CN3CCC4(CC3)Cc3cc(Cl)ccc3O4)cccc2s1	–	–	1300	–	–	–	Not Active
N[C@H](COc1cccc2c1NC(=O)CO2)CN1CCC2(CC1)Cc1cc(F)ccc1O2	–	< 10	79	–	–	–	Not Active
N[C@H](COc1cccc2ccc(=O)[nH]c12)CN1CCC2(CC1)Cc1cc(F)ccc1O2	–	< 10	560	–	–	1200	Not Active
CNC(=O)Nc1ccc(OC)cc1OC[C@@H](O)CN1CCC2(CC1)Cc1cc(F)ccc1O2	–	87.9	13	1780	–	–	–
CNC(=O)Nc1ccc(O)cc1OC[C@@H](O)CN1CCC2(CC1)Cc1cc(F)ccc1O2	–	< 10	3.2	–	10.7 µL/min	13100	–

Source: ChEMBL document CHEMBL3098005, “Structure activity relationships of fused bicyclic and urea derivatives of spirocyclic compounds as potent CCR1 antagonists” (Bioorg Med Chem Lett, 2014)
